In ChEMBL document CHEMBL6127049, “Discovery of the selective and nanomolar inhibitor of DPP-4 more potent than sitagliptin by structure-guided rational design” (Eur J Med Chem, 2024):

What was measured:
[1] = biological target: Dipeptidyl peptidase 4 (Homo sapiens, UniProt P27487); experiment: Inhibition of DPP4 (unknown origin) assessed as hydrolysis rate using Gly-pro-p-nitroanilide as substrate measured after 20 mins incubation by fluorometric assay
[2] = species: Rattus norvegicus; experiment: Anti-diabetic activity in STZ-induced type 2 diabetes male Wistar albino rat model assessed as fasting blood glucose level measured on day 28; type: functional
[3] = species: Rattus norvegicus; experiment: Anti-diabetic activity in STZ-induced type 2 diabetes male Wistar albino rat model assessed as fasting blood glucose level measured on day 1; type: functional

Chain of Dipeptidyl peptidase 4 (P27487 whole entry): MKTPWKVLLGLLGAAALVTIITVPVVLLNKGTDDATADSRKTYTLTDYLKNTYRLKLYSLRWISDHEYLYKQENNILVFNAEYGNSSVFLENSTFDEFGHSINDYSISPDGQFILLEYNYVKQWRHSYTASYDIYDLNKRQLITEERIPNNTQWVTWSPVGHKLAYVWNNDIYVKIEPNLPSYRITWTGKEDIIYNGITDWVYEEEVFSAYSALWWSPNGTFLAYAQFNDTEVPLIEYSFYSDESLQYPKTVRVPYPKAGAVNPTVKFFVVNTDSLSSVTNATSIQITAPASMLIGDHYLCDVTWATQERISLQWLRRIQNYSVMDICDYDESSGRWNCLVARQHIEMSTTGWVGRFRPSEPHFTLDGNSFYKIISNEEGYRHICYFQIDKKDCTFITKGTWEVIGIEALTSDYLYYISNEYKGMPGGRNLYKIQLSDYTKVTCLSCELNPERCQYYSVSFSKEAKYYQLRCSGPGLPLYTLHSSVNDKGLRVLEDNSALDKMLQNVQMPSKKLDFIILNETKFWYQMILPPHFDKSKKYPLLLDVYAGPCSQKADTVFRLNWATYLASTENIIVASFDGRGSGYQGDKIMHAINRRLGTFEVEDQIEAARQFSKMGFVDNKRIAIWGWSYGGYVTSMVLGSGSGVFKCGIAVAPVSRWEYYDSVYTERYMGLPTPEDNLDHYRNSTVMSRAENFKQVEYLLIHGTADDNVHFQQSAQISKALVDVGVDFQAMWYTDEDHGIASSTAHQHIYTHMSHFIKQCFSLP

IC50 [1] [nM] | SMILES | Activity [2] [mg/dL] | Activity [3] [mg/dL]
2550 | CC1=C(CC(=O)N2CCn3c(nnc3C(F)(F)F)C2)C(C)NC(=O)N1 (stereo unspecified) | – | –
226 | Cc1nc(N2CCn3c(nnc3C(F)(F)F)C2)nc(C)c1CC(=O)O | – | –
1030 | CC1=C(CC(=O)N2CCCC2C#N)C(C)NC(=O)N1 (stereo unspecified) | – | –
– | CS(=O)(=O)n1cc2c(n1)CN([C@H]1CO[C@H](c3cc(F)ccc3F)[C@@H](N)C1)C2 [OMARIGLIPTIN] | 105 | 293
1190 | CC1=C(CC(=O)N2CCCC(N)C2)C(C)NC(=O)N1 (stereo unspecified) | – | –
390 | CC1=C(C(=O)O)C(c2ccc(F)c(F)c2)N=C(N)N1C(=O)CN1CCCC1C#N (stereo unspecified) | – | –
1040 | CC1=C(CC(=O)N2CCCC(N)C2)C(c2ccc(F)c(F)c2)NC(=O)N1 (stereo unspecified) | – | –
266 | CC1=C(CC(=O)N2CCCC2C#N)C(c2ccc(F)c(F)c2)NC(=O)N1 (stereo unspecified) | – | –
710 | CC1=C([N+](=O)[O-])C(c2ccc(F)c(F)c2)N=C(N)N1C(=O)CN1CCCC1C#N (stereo unspecified) | – | –
1230 | Cc1nc(N2CCCC2C#N)nc(C)c1CC(=O)O (stereo unspecified) | – | –
